The values below come from US12491170B2, “Stable treprostinil prodrugs” (United Therapeutics Corporation, priority 2020, dated 2025).

Data set [1] has as its target prostaglandin E2 (PGE2) receptor 2 (EP2) (Homo sapiens, UniProt P43116). Kind of data set: EP2 receptor cAMP agonist assay (HEK293T cells). It counts as cell-based. Details: key to EC50 Fold Different from Treprostinil, EP2 Receptor: NC = too inactive to realistically calculate. Conditions: for EP2 Relative to Tre: Table 22, relative to treprostinil EC50 values, * partial agonists or ambiguous dose-response curves; for Activity at the EP2 receptor compared to treprostinil: summary of findings. The method, then:
(§1) Cyclic AMP assay kit: Multiscreen™ TR-FRET cAMP 1.0 No Wash Assay Kit (Multispan, Inc.)
(§2) Cells were thawed from frozen cells and resuspended in assay buffer at desired concentrations. cAMP or Calcium assays were performed according to the manufacturer's protocol using Multiscreen™ TR-FRET cAMP 1.0 No Wash Assay Kit or Multiscreen™ Calcium 1.0 No Wash Kit.
(§3) Gas Cyclic AMP (cAMP) Assay: In agonist mode testing, cells were seeded in a 384-well plate at an appropriate density and then were treated with compounds and incubated at 37° C. for 20 minutes. The reaction was terminated by […] trFluor™ Eu-labeled cAMP and trFluor™ 650-labeled anti-cAMP antibody in lysis buffer. […] All testing wells contained 0.1% DMSO in the final concentrations.
(§4) Data in graphs are represented in Mean±SD. Dose-dependent responses were fitted with sigmoidal dose-response curves allowing variable slopes using GraphPad Prism version 6 (Graphpad Prism).
(§5) These studies used cell lines overexpressing either human IP, EP2 or DP1, or EP1 receptors, and following incubation with varying concentrations of compounds, cAMP levels were measured using Fluorescence Resonance Energy Transfer (FRET).

Data set [2] can be described thus: Stability in liver microsomes, human. Particulars: for AUC Mono (treprostinil formed) / AUC / CLint / Half-life: human. (In general: Microsomes from liver hold many membrane-bound enzymes, among them those of drug oxidation.)
In data set [3] the target is prostaglandin I2 (PGI2) receptor (IP) (Homo sapiens, UniProt P43119). Kind of data set: IP receptor cAMP agonist assay (CHO-K1 cells). It counts as cell-based. Details: key to EC50 Fold Different from Treprostinil, IP Receptor: NC = too inactive to realistically calculate. Particulars: for IP Relative to Tre: Table 22, relative to treprostinil EC50 values, * partial agonists or ambiguous dose-response curves; for Activity at the IP receptor compared to treprostinil: summary of findings. The method, then: as §1, §2, §3, §4, §5

Data set [4] is described as follows: Stability in cryopreserved hepatocytes, human. Particulars: for Mono AUC (treprostinil formed) / AUC / CLint / Half-life: human; for CLint, calculated (in parentheses) / Half-life, calculated (in parentheses) / CLint / Half-life: hepatocytes.
A short description of data set [5]: Stability in human subcutaneous skin homogenate. Particulars: for Mono AUC (treprostinil formed) / AUC: human.
[6] abbreviates: Table 18, * partial agonists or odd dose-response curves.

Chain of prostaglandin I2 (PGI2) receptor (IP) (P43119 whole entry): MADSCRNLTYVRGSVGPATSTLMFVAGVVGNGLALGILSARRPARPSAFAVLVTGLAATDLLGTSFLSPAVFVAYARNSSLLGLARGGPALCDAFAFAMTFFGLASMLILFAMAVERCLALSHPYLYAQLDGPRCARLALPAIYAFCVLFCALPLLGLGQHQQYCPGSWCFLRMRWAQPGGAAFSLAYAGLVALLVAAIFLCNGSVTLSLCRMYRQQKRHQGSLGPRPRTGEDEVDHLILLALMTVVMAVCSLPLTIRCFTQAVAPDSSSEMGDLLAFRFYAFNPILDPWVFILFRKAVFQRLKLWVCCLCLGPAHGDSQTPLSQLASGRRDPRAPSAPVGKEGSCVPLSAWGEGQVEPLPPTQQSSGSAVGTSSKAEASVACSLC
Chain of prostaglandin E2 (PGE2) receptor 2 (EP2) (P43116 whole entry): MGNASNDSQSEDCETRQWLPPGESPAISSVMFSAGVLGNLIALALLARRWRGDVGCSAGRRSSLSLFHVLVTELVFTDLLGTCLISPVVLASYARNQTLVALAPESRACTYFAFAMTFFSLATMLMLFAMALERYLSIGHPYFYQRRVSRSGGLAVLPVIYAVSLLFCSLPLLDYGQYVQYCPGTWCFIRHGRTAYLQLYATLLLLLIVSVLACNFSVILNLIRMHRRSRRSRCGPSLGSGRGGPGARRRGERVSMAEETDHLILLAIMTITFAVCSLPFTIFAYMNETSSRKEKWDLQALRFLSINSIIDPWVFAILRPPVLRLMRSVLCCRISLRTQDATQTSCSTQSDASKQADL

`CCCCCC(CCC1C(O)CC2Cc3c(cccc3OCC(=O)O)CC21)OC(C)=O` (stereo not shown) [Prodrug XLIII]: the “EP2 Relative to Tre” value in data set [1] is 461x. For the same compound, in data set [2], the “Treprostinil Concentration 0 min” value came out at 0.883 µM, the “Treprostinil Concentration 15 min” value came to 0.681 µM, the “Treprostinil Concentration 30 min” value is 0.602 µM and the “Treprostinil Concentration 60 min” value was determined as 0.513 µM. In data set [2], the “Treprostinil Concentration 120 min” value was determined as 0.341 µM and the “AUC Mono (treprostinil formed)” value was 32.6 µmol·min/L. The “IP Relative to Tre” value in data set [3] is 632x. For the same compound, in data set [4], the “Treprostinil Concentration 0 min” value came to 0.00744 µM, the “Treprostinil Concentration 120 min” value was found to be 0.507 µM and the “Mono AUC (treprostinil formed)” value turned out to be 62.2 µmol·min/L. For the same compound, in data set [5], the “Treprostinil Concentration 0 min” value amounted to 0.0034 µM, the “Treprostinil Concentration 30 min” value was 0.382 µM, the “Treprostinil Concentration 60 min” value worked out at 0.583 µM and the “Treprostinil Concentration 120 min” value worked out at 0.839 µM. The “Mono AUC (treprostinil formed)” value in data set [5] was found to be 62.92 µmol·min/L.

What is called AUC is concentration integrated over time. For the compound treprostinil diacetate [Prodrug LXXII], the “Activity at the EP2 receptor compared to treprostinil” value in data set [1] was “non-traditional dose response curve”. Further, in data set [2], the “Trep Concentration 0 min” value stood at 0.989 µM, the “Trep Concentration 10 min” value was 0.829 µM, the “Trep Concentration 20 min” value is 0.543 µM and the “Trep Concentration 30 min” value is 0.485 µM. In addition, in data set [2], the “Trep Concentration 60 min” value is 0.349 µM, the “Treprostinil Concentration 0 min” value is 0.989 µM, the “Treprostinil Concentration 15 min” value was found to be 0.829 µM and the “Treprostinil Concentration 30 min” value was determined as 0.543 µM. In data set [2], the “Treprostinil Concentration 60 min” value was 0.485 µM, the “Treprostinil Concentration 120 min” value stood at 0.349 µM, the AUC was found to be 33.6 µmol·min/L and the “AUC Mono (treprostinil formed)” value turned out to be 33.6 µmol·min/L. Also, in data set [2] (microsomes), the CLint is above 0.139 mL/min/mg protein and the Half-life is listed as below 10 min. In addition, the “Activity at the IP receptor compared to treprostinil” value in data set [3] is “inactive”. Also, in data set [4], the “Trep Concentration (μM) 0 min” value was found to be 0.00458 µM, the “Trep Concentration (μM) 15 min” value was found to be 0.562 µM, the “Trep Concentration (μM) 30 min” value is 0.491 µM and the “Trep Concentration (μM) 60 min” value was 0.433 µM. In addition, in data set [4], the “Treprostinil Concentration 0 min” value came out at 0.00458 µM; the “CLint, calculated (in parentheses)” value was 0.276 mL/min/mg protein; the “Half-life, calculated (in parentheses)” value was 1.67 min; the “AUC” value turned out to be 49.92 µmol·min/L. Moreover, in data set [4], the “Mono AUC (treprostinil formed)” value is 49.9 µmol·min/L, the CLint is on record as above 0.0308 mL/min/mg protein and the Half-life was below 15 min. Further, in data set [5], the “Trep Concentration 0 min” value is 0 µM, the “Trep Concentration 30 min” value is 0.02 µM, the “Trep Concentration 60 min” value was determined as 0.0556 µM and the “Trep Concentration 120 min” value was determined as 0.147 µM. Besides, in data set [5], the “Treprostinil Concentration 0 min” value came to 0 µM, the “Treprostinil Concentration 30 min” value is 0.02 µM, the AUC came to 7.512 µmol·min/L and the “Mono AUC (treprostinil formed)” value was determined as 7.512 µmol·min/L.

Take `CCCCCC(CCC1C(O)CC2Cc3c(cccc3OCC(=O)O)CC21)OC(=O)CC` (stereo not shown) [Prodrug LV]: in data set [1], the “EP2 Relative to Tre” value was 50x. In addition, in data set [2], the “Treprostinil Concentration 0 min” value worked out at 1.17 µM, the “Treprostinil Concentration 15 min” value stood at 1.01 µM, the “Treprostinil Concentration 30 min” value stood at 0.837 µM and the “Treprostinil Concentration 60 min” value worked out at 0.736 µM. In addition, in data set [2], the “Treprostinil Concentration 120 min” value was determined as 0.389 µM and the “AUC Mono (treprostinil formed)” value is 44.9 µmol·min/L. Besides, the “IP Relative to Tre” value in data set [3] is 54x. In addition, in data set [4], the “Treprostinil Concentration 0 min” value turned out to be 0.113 µM, the “Treprostinil Concentration 120 min” value turned out to be 0.527 µM and the “Mono AUC (treprostinil formed)” value was determined as 68.8 µmol·min/L. In addition, in data set [5], the “Treprostinil Concentration 0 min” value stood at 0.0045 µM, the “Treprostinil Concentration 30 min” value is 0.545 µM and the “Mono AUC (treprostinil formed)” value was 78.38 µmol·min/L.

Take `CCCCCC(CCC1C(OC(=O)OC)CC2Cc3c(cccc3OCC(=O)O)CC21)OC(=O)OC` (stereo not shown) [Prodrug LXXI, treprostinil dicarbonate]: in data set [1], the “Activity at the EP2 receptor compared to treprostinil” value is “inactive”. Besides, in data set [2], the AUC stood at 10.56 µmol·min/L and the “AUC Mono (treprostinil formed)” value came out at 10.6 µmol·min/L. Further, in data set [2] (microsomes), the CLint is listed as above 0.139 mL/min/mg protein; the Half-life was below 10 min; the “CLint, calculated (in parentheses)” value is reported as 0.189 mL/min/mg protein; the “Half-life, calculated (in parentheses)” value is reported as 7.32 min. For the same compound, in data set [3], the “Activity at the IP receptor compared to treprostinil” value was “inactive”. Further, in data set [4], the “CLint, calculated (in parentheses)” value is 0.0516 mL/min/mg protein; the “Half-life, calculated (in parentheses)” value is 8.96 min; the “AUC” value worked out at 26.57 µmol·min/L; the “Mono AUC (treprostinil formed)” value was found to be 26.6 µmol·min/L. For the same compound, in data set [4], the CLint is listed as above 0.0308 mL/min/mg protein and the Half-life is recorded as below 15 min. In data set [5], the AUC turned out to be 0.3108 µmol·min/L and the “Mono AUC (treprostinil formed)” value was 0.3108 µmol·min/L.

With `CCCCCC(CCC1C(O)CC2Cc3c(cccc3OCC(=O)O)CC21)OP(=O)(O)O` (stereo not shown) [Prodrug VI], the “EP2 Relative to Tre” value in data set [1] is recorded as 4x. For the same compound, the “EP2 Relative to Tre” value in data set [1] (listed as Prodrug VI repeat) is listed as 9x. In data set [2], the “Treprostinil Concentration 0 min” value came to 0.02 µM, the “Treprostinil Concentration 15 min” value was 0.038 µM, the “Treprostinil Concentration 30 min” value stood at 0.038 µM and the “Treprostinil Concentration 60 min” value was 0.03 µM. In data set [2], the “Treprostinil Concentration 120 min” value was 0.061 µM and the “AUC Mono (treprostinil formed)” value is 2.4 µmol·min/L. Moreover, in data set [3], the “IP Relative to Tre” value was 5x. The “IP Relative to Tre” value in data set [3] (listed as Prodrug VI repeat) is 1.5x. Also, in data set [4], the “Treprostinil Concentration 0 min” value was 0 µM, the “Treprostinil Concentration 120 min” value came to 0.540 µM and the “Mono AUC (treprostinil formed)” value is 48.7 µmol·min/L. Further, in data set [5], the “Treprostinil Concentration 0 min” value turned out to be 0 µM, the “Treprostinil Concentration 30 min” value worked out at 0.6 µM and the “Mono AUC (treprostinil formed)” value was determined as 91.95 µmol·min/L.

Turning to `CCCCCC(CCC1C(OC(=O)CC)CC2Cc3c(cccc3OCC(=O)O)CC21)OC(=O)CC` (stereo not shown) [Prodrug LXX, treprostinil dipropionate], in data set [1] (setting [6]), the “EC50 Fold Different from Treprostinil, EP2 Receptor” value is listed as “NC”. Moreover, the “Activity at the EP2 receptor compared to treprostinil” value in data set [1] is “inactive”. Besides, in data set [2], the “Trep Concentration 0 min” value amounted to 1.18 µM, the “Trep Concentration 10 min” value was found to be 0.903 µM, the “Trep Concentration 20 min” value turned out to be 0.602 µM and the “Trep Concentration 30 min” value was 0.538 µM. Also, in data set [2], the “Trep Concentration 60 min” value amounted to 0.381 µM, the “Treprostinil Concentration 0 min” value is 1.18 µM, the “Treprostinil Concentration 15 min” value turned out to be 0.903 µM and the “Treprostinil Concentration 30 min” value was 0.602 µM. Besides, in data set [2], the “Treprostinil Concentration 60 min” value worked out at 0.538 µM, the “Treprostinil Concentration 120 min” value worked out at 0.381 µM, the AUC is 37.43 µmol·min/L and the “AUC Mono (treprostinil formed)” value was 37.4 µmol·min/L. In data set [2] (microsomes), this compound yielded a CLint above 0.139 mL/min/mg protein and a Half-life below 10 min. The “EC50 Fold Different from Treprostinil, IP Receptor” value in data set [3] (setting [6]) was “NC”. Further, in data set [3], the “Activity at the IP receptor compared to treprostinil” value was “inactive”. In data set [4], the “Trep Concentration (μM) 0 min” value came to 0.00542 µM, the “Trep Concentration (μM) 15 min” value amounted to 0.638 µM, the “Trep Concentration (μM) 30 min” value was 0.556 µM and the “Trep Concentration (μM) 60 min” value is 0.482 µM. In data set [4], the “Trep Concentration (μM) 120 min” value turned out to be 0.413 µM; the “Treprostinil Concentration 0 min” value came out at 0.00542 µM; the “Treprostinil Concentration 120 min” value turned out to be 0.413 µM; the “CLint, calculated (in parentheses)” value was 0.185 mL/min/mg protein. In addition, in data set [4], the “Half-life, calculated (in parentheses)” value is recorded as 2.50 min; the exposure (AUC) came out at 56.2 µmol·min/L; the “Mono AUC (treprostinil formed)” value was found to be 56.2 µmol·min/L; the CLint is given as above 0.0308 mL/min/mg protein. The same compound had a Half-life in data set [4] below 15 min. Also, in data set [5], the “Trep Concentration 0 min” value stood at 0 µM, the “Trep Concentration 30 min” value was found to be 0.0179 µM, the “Trep Concentration 60 min” value was 0.0411 µM and the “Trep Concentration 120 min” value was 0.0972 µM. In addition, in data set [5], the “Treprostinil Concentration 0 min” value is 0 µM, the “Treprostinil Concentration 30 min” value was determined as 0.0179 µM, the AUC was found to be 5.303 µmol·min/L and the “Mono AUC (treprostinil formed)” value stood at 5.303 µmol·min/L.
